What was measured:
rat (HsdHan:WIST strain) = test: GLP single dose intravenous bolus extended acute toxicology study in the rat; type: in vivo; settings: dose levels 0, 0.25 and 1 mg/kg
Procedure: Two key studies were conducted to assure regulators of the safety of [^18F]FET-βAG-TOCA prior to first-in-human testing. A Good Laboratory Practice single dose intravenous bolus extended acute toxicology study in the rat (HsdHan^TM:WIST strain) was conducted with both [^19F]FET-βAG-TOCA and the propanyl-βAG-TOCA precursor. Animals were monitored throughout; day 2 (interim) and day 14 (termination) analysis were conducted. Dose levels of 0, 0.25 and 1 mg/kg of either test articles were tolerated in-life with no mortality. There were no effects on food consumption or body weight. Clinical pathology changes were noted but were not consistently seen in both sexes and were not associated with any pathological changes. A No Observed Adverse Effect Level (NOAEL) for both [^19F]FET-βAG-TOCA and propanyl-βAG-TOCA was considered to be 1.0 mg/kg. This study followed ‘approach 1’ given in the ICH M3 (R2) guideline to assess whether a single 50 μg (up to 100 μg) dose of the test article can be given to humans. The study design permitted a safety margin of 1000× the equivalent human dose to be established.

Wistar rats = settings: in vivo, iv
Procedure: While adhering to ALARP principles (As Low As Reasonably Practical), a rat dosimetry study was also conducted to enable initial prediction of human Effective Dose. Wistar rats were dosed with a single intravenous injection of [^18F]FET-βAG-TOCA and monitored up to 7 h. Effective Dose for both sexes were estimated at 0.03 mSv/MBq.

Substance	Effects on food consumption or body weight (rat (HsdHan:WIST strain))	Tolerability / mortality (rat (HsdHan:WIST strain))	Effective Dose predicted for humans from rat dosimetry (Wistar rats) [mSv/MBq]
[^19F]FET-βAG-TOCA	no effects	no mortality	
propanyl-βAG-TOCA	no effects	no mortality	
[^18F]fluoroethyltriazole-βAG-TOCA [Compound 7]			0.03

— publication PMC7226534, “[^18F]FET-βAG-TOCA: The Design, Evaluation and Clinical Translation of a Fluorinated Octreotide” (Cancers, 2020)
